From patent US20240398784A1, “C-LINKED ISOQUINOLINE AMIDES AS LRRK2 INHIBITORS, PHARMACEUTICAL COMPOSITIONS, AND USES THEREOF” (Merck Sharp & Dohme LLC, priority 2021, published 2024) come the findings set out here.

Structures are written as SMILES.

The target in the experiment is LRRK2 G2019S (Homo sapiens, UniProt Q5S007, G2019S). Put plainly: LRRK2 G2019S Km ATP LanthaScreen assay. It is filed as biochemical. Conditions: read-out: LRRK2 pIC50 (converted).
LRRK2 G2019S, sequence (Q5S007 whole entry G2019S): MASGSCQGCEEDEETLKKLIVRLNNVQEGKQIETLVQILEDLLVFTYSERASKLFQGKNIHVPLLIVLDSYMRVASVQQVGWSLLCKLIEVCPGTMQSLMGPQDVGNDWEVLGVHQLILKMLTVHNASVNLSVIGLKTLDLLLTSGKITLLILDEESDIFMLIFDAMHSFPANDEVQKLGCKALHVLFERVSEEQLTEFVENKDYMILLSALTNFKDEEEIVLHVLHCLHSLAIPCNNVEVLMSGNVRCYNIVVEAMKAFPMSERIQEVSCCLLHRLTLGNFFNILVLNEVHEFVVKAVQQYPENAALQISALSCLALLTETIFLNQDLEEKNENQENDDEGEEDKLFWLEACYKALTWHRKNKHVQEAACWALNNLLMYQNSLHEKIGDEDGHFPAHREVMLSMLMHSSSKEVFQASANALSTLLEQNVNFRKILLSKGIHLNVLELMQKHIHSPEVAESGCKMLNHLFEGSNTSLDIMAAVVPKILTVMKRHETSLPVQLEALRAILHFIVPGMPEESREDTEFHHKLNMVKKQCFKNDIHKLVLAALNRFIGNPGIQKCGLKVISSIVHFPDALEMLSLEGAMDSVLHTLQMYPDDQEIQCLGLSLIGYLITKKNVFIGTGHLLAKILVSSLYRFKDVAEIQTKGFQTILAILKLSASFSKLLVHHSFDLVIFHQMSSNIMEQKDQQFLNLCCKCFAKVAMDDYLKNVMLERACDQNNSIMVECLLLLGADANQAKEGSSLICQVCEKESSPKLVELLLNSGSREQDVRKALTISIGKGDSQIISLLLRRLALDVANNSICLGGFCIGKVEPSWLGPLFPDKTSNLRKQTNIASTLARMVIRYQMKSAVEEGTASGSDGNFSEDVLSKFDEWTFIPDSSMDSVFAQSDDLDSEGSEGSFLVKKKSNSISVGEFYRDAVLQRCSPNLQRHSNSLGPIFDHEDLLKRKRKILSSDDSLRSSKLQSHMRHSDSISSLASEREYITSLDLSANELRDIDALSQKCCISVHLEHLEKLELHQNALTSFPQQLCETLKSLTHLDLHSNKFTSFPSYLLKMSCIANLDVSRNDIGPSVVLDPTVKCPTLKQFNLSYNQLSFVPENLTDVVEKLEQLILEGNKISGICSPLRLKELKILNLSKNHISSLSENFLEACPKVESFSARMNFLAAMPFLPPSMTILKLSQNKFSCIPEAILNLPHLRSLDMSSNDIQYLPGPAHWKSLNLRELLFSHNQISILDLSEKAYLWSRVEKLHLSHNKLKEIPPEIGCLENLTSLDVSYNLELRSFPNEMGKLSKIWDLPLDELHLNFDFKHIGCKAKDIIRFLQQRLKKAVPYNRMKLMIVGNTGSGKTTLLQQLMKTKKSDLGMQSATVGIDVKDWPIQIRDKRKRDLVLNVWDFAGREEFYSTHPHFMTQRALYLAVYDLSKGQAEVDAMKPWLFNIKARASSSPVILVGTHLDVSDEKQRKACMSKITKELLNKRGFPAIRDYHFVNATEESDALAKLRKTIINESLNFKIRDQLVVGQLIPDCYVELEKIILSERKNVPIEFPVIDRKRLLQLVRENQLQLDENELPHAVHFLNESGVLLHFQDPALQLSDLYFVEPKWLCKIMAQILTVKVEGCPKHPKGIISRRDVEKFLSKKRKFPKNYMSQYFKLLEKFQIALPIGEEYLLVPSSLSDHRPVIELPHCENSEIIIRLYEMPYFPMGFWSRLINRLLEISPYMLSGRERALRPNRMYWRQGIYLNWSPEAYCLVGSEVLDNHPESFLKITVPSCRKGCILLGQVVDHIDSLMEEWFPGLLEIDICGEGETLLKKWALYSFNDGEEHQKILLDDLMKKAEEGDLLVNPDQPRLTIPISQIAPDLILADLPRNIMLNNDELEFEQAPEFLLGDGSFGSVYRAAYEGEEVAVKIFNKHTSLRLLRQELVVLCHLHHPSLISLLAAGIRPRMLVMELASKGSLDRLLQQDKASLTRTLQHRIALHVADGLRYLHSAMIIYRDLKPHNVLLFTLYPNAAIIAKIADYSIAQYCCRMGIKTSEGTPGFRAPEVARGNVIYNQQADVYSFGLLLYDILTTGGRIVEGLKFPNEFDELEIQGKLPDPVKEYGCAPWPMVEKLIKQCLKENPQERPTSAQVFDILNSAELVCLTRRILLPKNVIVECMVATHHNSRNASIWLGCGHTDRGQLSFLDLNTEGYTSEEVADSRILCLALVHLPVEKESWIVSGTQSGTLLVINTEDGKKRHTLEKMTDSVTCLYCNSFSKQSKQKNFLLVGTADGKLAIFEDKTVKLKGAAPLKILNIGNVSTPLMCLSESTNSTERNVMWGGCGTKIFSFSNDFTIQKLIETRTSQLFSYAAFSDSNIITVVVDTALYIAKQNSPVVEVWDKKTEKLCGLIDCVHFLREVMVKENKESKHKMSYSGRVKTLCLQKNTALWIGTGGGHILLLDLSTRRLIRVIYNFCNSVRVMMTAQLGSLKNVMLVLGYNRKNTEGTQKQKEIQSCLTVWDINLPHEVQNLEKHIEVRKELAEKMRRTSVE

As to `CC1C(C(=O)Nc2cc3cc(C4CCN(C5COC5)CC4)c(Cl)cc3cn2)C1(F)F` (racemic) [Ex-1.6, Rac-N-(7-chloro-6-(1-(oxetan-3-yl)piperidin-4-yl)isoquinolin-3-yl)-2,2-difluoro-3-methylcyclopropane-1-carboxamide], the IC50 was 1.86 nM. As for `CC1CC1C(=O)Nc1cc2cc(C3CCN(C4COC4)CC3)c(Cl)cc2cn1` (single isomer, unassigned) [Ex-9.3, N-(7-chloro-6-(1-(oxetan-3-yl)piperidin-4-yl)isoquinolin-3-yl)-2-methylcyclopropane-1-carboxamide], the IC50 is 0.631 nM. With `CC1(N2CCC(c3cc4cc(NC(=O)[C@@H]5CCCCO5)ncc4cc3Cl)CC2)COCC1O` (single isomer, unassigned) [Ex-1.17, (S)-N-(7-chloro-6-(1-((3R,4R or 3S,4S)-4-hydroxy-3-methyltetrahydrofuran-3-yl)piperidin-4-yl)isoquinolin-3-yl)tetrahydro-2H-pyran-2-carboxamide], the IC50 was 0.178 nM. For `CC1CC1(C#N)c1ccc2cnc(NC(=O)C3CC3)cc2c1` (single isomer, unassigned) [Ex-18.8, (R or S)-N-(6-(1-cyano-2-methylcyclopropyl)isoquinolin-3-yl)cyclopropanecarboxamide] the value was 5.37 nM; for `N#CC1(c2ccc3cnc(NC(=O)C4CC45CC5)cc3c2)CC12CC2` (single isomer, unassigned) [Ex-2.2], 0.398 nM; for `Cc1nn(C)cc1CC(=O)Nc1cc2cc(C3CCN(C4(C)COCC4O)CC3)c(Cl)cc2cn1` (single isomer, unassigned) [Ex-1.40, N-(7-chloro-6-(1-((3R,4R or 3S,4S)-4-hydroxy-3-methyltetrahydrofuran-3-yl)piperidin-4-yl)isoquinolin-3-yl)-2-(1,3-dimethyl-1H-pyrazol-4-yl)acetamide], 0.112 nM. To `CCOC1CC2(C1)CC2C(=O)Nc1cc2cc(C3CCN(C4(C)COCC4O)CC3)c(Cl)cc2cn1` (single isomer, unassigned) [Ex-4.29, N-(7-chloro-6-(1-(4-hydroxy-3-methyltetrahydrofuran-3-yl)piperidin-4-yl)isoquinolin-3-yl)-5-ethoxyspiro[2.3]hexane-1-carboxamide] belongs 7.94 nM; to `C[C@@]1(N2CC[C@@H](c3cc4cc(NC(=O)[C@H]5CC56CC6)ncc4cc3Cl)[C@H](F)C2)COC[C@@H]1O` [Ex-23.1, (S)-N-(7-chloro-6-((3S,4S)-3-fluoro-1-((3R,4R)-4-hydroxy-3-methyltetrahydrofuran-3-yl)piperidin-4-yl)isoquinolin-3-yl)spiro[2.2]pentane-1-carboxamide], 0.0813 nM.

For `CC1(C)CCC(C(=O)Nc2cc3cc(C4CCC(N5CCC(F)C5)CC4)c(Cl)cc3cn2)CO1` (single isomer, unassigned) [Ex-5.21, N-(7-chloro-6-(4-(3-fluoropyrrolidin-1-yl)cyclohexyl)isoquinolin-3-yl)-6,6-dimethyltetrahydro-2H-pyran-3-carboxamide], the IC50 is 3630 nM. For `CCC1C(C(=O)Nc2cc3cc(C(C)CC#N)c(Cl)cc3cn2)C1c1cnn(C)c1` (single isomer, unassigned) [Ex-9.16, N-(7-chloro-6-(1-cyanopropan-2-yl)isoquinolin-3-yl)-2-ethyl-3-(1-methyl-1H-pyrazol-4-yl)cyclopropane-1-carboxamide], the IC50 is 1.82 nM. Take `Cn1cc(C(C)(C)C(=O)Nc2cc3cc(C4CCN(C5(C)COCC5F)CC4)c(Cl)cc3cn2)cn1` (single isomer, unassigned) [Ex-6.55, N-(7-chloro-6-(1-(4-fluoro-3-methyltetrahydrofuran-3-yl)piperidin-4-yl)isoquinolin-3-yl)-2-methyl-2-(1-methyl-1H-pyrazol-4-yl)propenamide]: the IC50 was 447 nM. Take `N#CC1(c2ccc3cnc(NC(=O)C4CC4c4ccncc4)cc3c2)CC12CC2` (stereo not drawn) [Ex-2.42]: the IC50 is 2.34 nM.
